In patent US11000033B2, “Ketone or oxime compound, and herbicide” (NISSAN CHEMICAL CORPORATION, priority 2014, dated 2021):

Assays:
Type in all cases: in vivo
Veronica persica = assay: Test Example 5: herbicidal effect by foliage application, plastic box (symbol R); conditions: 320 g/ha, 3 weeks after application
In short: (§1)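 Visual herbicidal score, taken three weeks post-application, of seedlings sprayed on the foliage with water-diluted emulsion at a predetermined amount; plants were 14 days old, greenhouse-raised at 25° C. to 30° C.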

Amaranthus retroflexus [1] = assay: Test Example 4: herbicidal effect by soil treatment (symbol N); conditions: 320 g/ha
In short: (§2)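 Seeds were sown in sterilized diluvial soil, covered with about 1.5 cm of soil, and the soil surface was sprayed with a water-diluted emulsion of the compound at a predetermined rate. Plants grew in a greenhouse at 25° C. to 30° C.; effects were scored visually 3 weeks after application.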

Abutilon theophrasti = assay: Test Example 5: herbicidal effect by foliage application, plastic box (symbol M); conditions: 320 g/ha, 3 weeks after application
In short: as §1

rice plant = assay: Test Example 5: effect on crop by foliage application, plastic box (symbol b); conditions: 320 g/ha, 3 weeks after application
In short: (§3)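 Diluvial soil, sterilized and boxed (21 × 13 × 7 cm), received spot-sown seed covered by about 1.5 cm soil; plants were then greenhouse-grown at 25–30° C.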

Chenopodium album [2] = assay: Test Example 4: herbicidal effect by soil treatment (symbol O); conditions: 320 g/ha
Description: Herbicidal Effect Test by Soil Treatment
Sterilized diluvial soil was placed in a plastic box having a length of 21 cm, a width of 13 cm, and a depth of 7 cm. Each of the seeds of Digitaria ciliaris, Setaria viridis, Echinochloa crus-galli var. crus-galli, Avena fatua, Alopecurus myosuroides, Lolium multiflorum Lam., Apera spica-venti, Abutilon theophrasti, Amaranthus retroflexus, Chenopodium album, Stellaria media, Galium spurium, Veronica persica, corn, soybean, rice, wheat, beet, and rapeseed was sowed in a spot-like manner and was covered with the soil of a thickness of about 1.5 cm. Subsequently, the emulsion agent of the compound present invention prepared in accordance with Formulation Example 2 was diluted with water so as to be a predetermined herbicide amount and the diluted emulsion agent was uniformly applied to the surface of the soil with a small-size spray. The plastic box was placed in a greenhouse of 25° C. to 30° C. to grow plant. 3 weeks later from the herbicide application, the effect to each plant was investigated in accordance with the criteria of Test Example 1.

Alopecurus myosuroides = assay: Test Example 4: herbicidal effect by soil treatment (symbol J); conditions: 320 g/ha
In short: as §2

Chenopodium album [3] = assay: Test Example 5: herbicidal effect by foliage application, plastic box (symbol O); conditions: 320 g/ha, 3 weeks after application
In short: as §1

Setaria viridis = assay: Test Example 5: herbicidal effect by foliage application, plastic box (symbol G); conditions: 320 g/ha, 3 weeks after application
In short: as §1

[4] = system: Echinochloa oryzacola Vasing.; assay: Test Example 2: herbicidal activity, application during weed generation in submerged conditions (symbol A); conditions: Table 23; application herbicide amount 320 g/ha; grade 0-5 by criteria of Test Example 1
In short: (§4)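 Flooded-soil post-emergence test: emulsion of compound, water-diluted to target rate, applied to paddy water surface at 1–2 leaf stage of mixed-sown weeds (alluvial soil, 4 cm water, 25–30° C. greenhouse); visual rating 3 weeks after application.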

soybean = assay: Test Example 4: effect on crop by soil treatment (symbol d); conditions: 320 g/ha
In short: (§5)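 Seeds were sown in spots on sterilized diluvial soil in a plastic box and covered with about 1.5 cm of soil. Plants were then grown in a greenhouse at 25° C. to 30° C.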

Scirpus juncoides = assay: Test Example 2: herbicidal activity, application during weed generation in submerged conditions (symbol B); conditions: Table 23; application herbicide amount 320 g/ha; grade 0-5 by criteria of Test Example 1
In short: as §4

beet [5] = assay: Test Example 4: effect on crop by soil treatment (symbol f); conditions: 320 g/ha
In short: as §5

Stellaria media = assay: Test Example 5: herbicidal effect by foliage application, plastic box (symbol P); conditions: 320 g/ha, 3 weeks after application
In short: as §1

[6] = system: Echinochloa crus-galli var. crus-galli; assay: Test Example 4: herbicidal effect by soil treatment (symbol H); conditions: 320 g/ha
In short: as §2

wheat = assay: Test Example 4: effect on crop by soil treatment (symbol e); conditions: 320 g/ha
In short: as §5

Lolium multiflorum Lam. = assay: Test Example 4: herbicidal effect by soil treatment (symbol K); conditions: 320 g/ha
In short: as §2

Amaranthus retroflexus [7] = assay: Test Example 5: herbicidal effect by foliage application, plastic box (symbol N); conditions: 320 g/ha, 3 weeks after application
In short: as §1

beet [8] = assay: Test Example 5: effect on crop by foliage application, plastic box (symbol f); conditions: 320 g/ha, 3 weeks after application
In short: as §3

[9] = system: Echinochloa crus-galli var. crus-galli; assay: Test Example 3: herbicidal effect by foliage application, Wagner pot (symbol H); conditions: application herbicide amount 320 g/ha
In short: (§6)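 Rating at 3 weeks post-spray, by defined criteria. Treatment: emulsion diluted with water to a predetermined amount, applied evenly to foliage of 14-day-old plants raised in alluvial soil flooded 0.1–0.5 cm deep at 25–30 °C, rice co-sown.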

Cyperus difformis = assay: Test Example 3: herbicidal effect by foliage application, Wagner pot (symbol E); conditions: application herbicide amount 320 g/ha
In short: as §6

Compound	R: Veronica persica, herbicidal effect (criteria 0-5) (Veronica persica)	N: Amaranthus retroflexus, herbicidal effect grade (Amaranthus retroflexus [1])	M: Abutilon theophrasti, herbicidal effect (criteria 0-5) (Abutilon theophrasti)	b: directly sowed rice plant, effect on crop (criteria 0-5) (rice plant)	O: Chenopodium album, herbicidal effect grade (Chenopodium album [2])	J: Alopecurus myosuroides, herbicidal effect grade (Alopecurus myosuroides)	O: Chenopodium album, herbicidal effect (criteria 0-5) (Chenopodium album [3])	G: Setaria viridis, herbicidal effect (criteria 0-5) (Setaria viridis)	Herbicidal effect grade, A: Echinochloa oryzacola Vasing. [4]	d: soybean, effect grade on crop (soybean)	Herbicidal effect grade, B: Scirpus juncoides (Scirpus juncoides)	f: beet, effect grade on crop (beet [5])	P: Stellaria media, herbicidal effect (criteria 0-5) (Stellaria media)	H: Echinochloa crus-galli var. crus-galli, herbicidal effect grade [6]	e: wheat, effect grade on crop (wheat)	K: Lolium multiflorum Lam., herbicidal effect grade (Lolium multiflorum Lam.)	N: Amaranthus retroflexus, herbicidal effect (criteria 0-5) (Amaranthus retroflexus [7])	f: beet, effect on crop (criteria 0-5) (beet [8])	herbicidal effect on H (Echinochloa crus-galli var. crus-galli), grade 0-5 [9]	herbicidal effect on E, grade 0-5 (Cyperus difformis)
CON=C(CC1CC(O)=C(c2c(C)cc(C)cc2C)C1=O)C(F)(F)F (centres unmarked) [1-097]	3 (Herbicidal ratio of 40% or higher and lower than 70%)	0 (Herbicidal ratio of 5% or lower (almost no effect))	3 (Herbicidal ratio of 40% or higher and lower than 70%)	5 (Herbicidal ratio of 90% or more (almost completely withered))	3 (Herbicidal ratio of 40% or higher and lower than 70%)	2 (Herbicidal ratio of 20% or higher and lower than 40%)	1 (Herbicidal ratio of 5% or higher and lower than 20%)	5 (Herbicidal ratio of 90% or more (almost completely withered))	1 (Herbicidal ratio of 5% or higher and lower than 20%)	0 (Herbicidal ratio of 5% or lower (almost no effect))	0 (Herbicidal ratio of 5% or lower (almost no effect))	0 (Herbicidal ratio of 5% or lower (almost no effect))	0 (Herbicidal ratio of 5% or lower (almost no effect))	2 (Herbicidal ratio of 20% or higher and lower than 40%)	0 (Herbicidal ratio of 5% or lower (almost no effect))	2 (Herbicidal ratio of 20% or higher and lower than 40%)				
CC(CC1CC(O)=C(c2c(C)cc(C)cc2C)C1=O)=NOCc1ccccc1Cl (centres unmarked) [1-113]	4 (Herbicidal ratio of 70% or higher and lower than 90%)	0 (Herbicidal ratio of 5% or lower (almost no effect))	1 (Herbicidal ratio of 5% or higher and lower than 20%)	4 (Herbicidal ratio of 70% or higher and lower than 90%)	0 (Herbicidal ratio of 5% or lower (almost no effect))	3 (Herbicidal ratio of 40% or higher and lower than 70%)	2 (Herbicidal ratio of 20% or higher and lower than 40%)	4 (Herbicidal ratio of 70% or higher and lower than 90%)	3 (Herbicidal ratio of 40% or higher and lower than 70%)	0 (Herbicidal ratio of 5% or lower (almost no effect))	3 (Herbicidal ratio of 40% or higher and lower than 70%)	0 (Herbicidal ratio of 5% or lower (almost no effect))	3 (Herbicidal ratio of 40% or higher and lower than 70%)	0 (Herbicidal ratio of 5% or lower (almost no effect))	0 (Herbicidal ratio of 5% or lower (almost no effect))	5 (Herbicidal ratio of 90% or more (almost completely withered))	0 (Herbicidal ratio of 5% or lower (almost no effect))	0 (Herbicidal ratio of 5% or lower (almost no effect))		
C=C(C)CN(CC)C(=O)OC1=C(c2c(C)cc(C)cc2C)C(=O)C(CC(C)=NOC)C1 (centres unmarked) [1-130]	0 (Herbicidal ratio of 5% or lower (almost no effect))	0 (Herbicidal ratio of 5% or lower (almost no effect))	0 (Herbicidal ratio of 5% or lower (almost no effect))	5 (Herbicidal ratio of 90% or more (almost completely withered))	0 (Herbicidal ratio of 5% or lower (almost no effect))	3 (Herbicidal ratio of 40% or higher and lower than 70%)		5 (Herbicidal ratio of 90% or more (almost completely withered))	1 (Herbicidal ratio of 5% or higher and lower than 20%)	0 (Herbicidal ratio of 5% or lower (almost no effect))	0 (Herbicidal ratio of 5% or lower (almost no effect))	0 (Herbicidal ratio of 5% or lower (almost no effect))	0 (Herbicidal ratio of 5% or lower (almost no effect))	0 (Herbicidal ratio of 5% or lower (almost no effect))	0 (Herbicidal ratio of 5% or lower (almost no effect))	3 (Herbicidal ratio of 40% or higher and lower than 70%)	0 (Herbicidal ratio of 5% or lower (almost no effect))	0 (Herbicidal ratio of 5% or lower (almost no effect))	4 (Herbicidal ratio of 70% or higher and lower than 90%)	4 (Herbicidal ratio of 70% or higher and lower than 90%)
CC(CC1CC(O)=C(c2c(C)cc(C)cc2C)C1=O)=NOCc1ccc(F)cc1 (centres unmarked) [1-136]	2 (Herbicidal ratio of 20% or higher and lower than 40%)	0 (Herbicidal ratio of 5% or lower (almost no effect))	3 (Herbicidal ratio of 40% or higher and lower than 70%)	5 (Herbicidal ratio of 90% or more (almost completely withered))	0 (Herbicidal ratio of 5% or lower (almost no effect))	5 (Herbicidal ratio of 90% or more (almost completely withered))	0 (Herbicidal ratio of 5% or lower (almost no effect))	5 (Herbicidal ratio of 90% or more (almost completely withered))	4 (Herbicidal ratio of 70% or higher and lower than 90%)	0 (Herbicidal ratio of 5% or lower (almost no effect))	4 (Herbicidal ratio of 70% or higher and lower than 90%)	0 (Herbicidal ratio of 5% or lower (almost no effect))	1 (Herbicidal ratio of 5% or higher and lower than 20%)	5 (Herbicidal ratio of 90% or more (almost completely withered))	3 (Herbicidal ratio of 40% or higher and lower than 70%)	5 (Herbicidal ratio of 90% or more (almost completely withered))		0 (Herbicidal ratio of 5% or lower (almost no effect))	5 (Herbicidal ratio of 90% or more (almost completely withered))	
